Experiments:
Type in all cases: physicochemical
[1] = Relaxivity measurements at 1.41 T; details: 1.41 T, 37° C., normalized to Gd; for r1 FBS: fetal bovine serum
Experimental: Relaxivity measurements at 1.41 T were performed using a MiniSpec mq60 spectrometer (Bruker Analytik, Karlsruhe, Germany) operating at a resonance frequency of 60 MHz and a temperature of 37° C. The T1 relaxation times were determined using the standard inversion recovery (IR) method with a fixed relaxation delay of at least 5×T1. The variable inversion time (TI) was calculated automatically by the standard software of the MiniSpec mq60 (8 steps). The T2 measurements were done by using a Carr-Purcell-Meiboom-Gill (CPMG) pulse sequence, applying a relaxation delay of at least 5×T1.
Each relaxivity measurement was performed using three different Gd concentrations (3 concentrations between 0.05 and 2 mM). The T1 and T2 relaxation times of the example compounds 1-10 were measured in different media for example in water, fetal bovine serum (FBS, Sigma, F7524) and human plasma.
(§1) Human plasma preparation: For each experiment fresh blood was taken from a volunteer using 10 mL citrate-tubes (Sarstedt S-Monovette 02.1067.001, 10 mL, Citrate). The 10 mL citrate-tubes were carefully inverted 10 times to mix blood and anticoagulant and centrifuged for 15 minutes at 1811 g at room temperature (Eppendorf, Centrifuge 5810R).
The relaxivities ri (where i=1, 2) were calculated on the basis of the measured relaxation rates Ri in water and plasma: Ri=Ri(0)+ri[CGd], where Ri(0) represent the relaxation rate of the respective solvent and CGd the concentration of the compound normalized to the Gadolinium. The Gadolinium concentrations of the investigated solutions were verified by Inductively Coupled Plasma Mass Spectroscopy (ICP-MS Agilent 7500a, Waldbronn, Germany).

[2] = Relaxivity measurements at 3.0 T; details: 37° C., normalized to Gd, average ± standard deviation
Experimental: Relaxivity measurements at 3.0 T were performed with a whole body 3.0 T MRI Scanner (Philips Intera, Philips Healthcare, Hamburg, Germany) using a knee-coil (SENSE-Knee-8, Philips Healthcare, Hamburg, Germany). The sample tubes (CryoTubetm Vials, Thermo Scientific 1.8 mL, Roskilde, Denmark) were positioned in 3 rows of 4 and 5 tubes in a plastic holder in a box filled with water. The temperature was adjusted to 37° C. For the MRI sequence, the shortest possible echo-time (TE) with 7.46 milliseconds was used. The inversion times were chosen to optimize the sequence to measure T1 values corresponding to the estimated T1 range of all relaxation times of contrast media containing solutions. The following inversion times (TIs) were applied: 50, 100, 150, 200, 300, 500, 700, 1000, 1400, 2100, 3200, and 4500 milliseconds. The sequence was run with a constant relaxation delay of 3.4 seconds after the registration of the last echo (variable TR in the range from 3450 to 7900 milliseconds). For details of the fit procedure, see Rohrer et. al. (Invest. Radiol. 2005; 40, 11: 715-724). The experimental matrix of the phantom measurement was 320×320.
The relaxivities were evaluated using three different concentrations of each compound (3 concentrations between 0.05 and 2 mM).
as §1, with “The T1 relaxation times of the Example compounds 1-6 were measured in water and human plasma. Human” for “Human”
The relaxivities ri (where i=1, 2) were calculated on the basis of the measured relaxation rates Ri in water and plasma: Ri=Ri(0)+ri[CGd], where Ri(0) represent the relaxation rate of the respective solvent and CGd the concentration of the compound normalized to the Gadolinium (Table 2).

[3] = Chemical stability (autoclaving at 121° C.); details: 5 mmol Gd/L in 10 mM Tris-HCl buffer, pH 7.4, 121° C. for 20 min
Water solubility = details: 10 mM Tris-HCl buffer, 20° C.
Experimental: The water solubility of the compounds was determined at room temperature (20° C.) in 0.5 mL buffer solution (10 mM Tris-HCl) in the microcentrifuge tubes (Eppendorf, 2.0 mL safe-lock caps). The solid compound was added stepwise to the buffer solution. The suspension was mixed using a shaker (Heidolph Reax 2000) and treated 5 min in an ultrasound bath (Bandelin, Sonorex Super RK255H) The suspension was stored at room temperature (20° C.) over night and final Gadolinium concentration was determined by inductively coupled plasma mass spectrometry (ICP-MS).

Molecule: CC(C(=O)NCC(=O)NCC(CNC(=O)CNC(=O)C(C)N1CCN(CC(=O)[O-])CCN(CC(=O)[O-])CCN(CC(=O)[O-])CC1)C(=O)NCCN(CCNC(=O)C(CNC(=O)CNC(=O)C(C)N1CCN(CC(=O)[O-])CCN(CC(=O)[O-])CCN(CC(=O)[O-])CC1)CNC(=O)CNC(=O)C(C)N1CCN(CC(=O)[O-])CCN(CC(=O)[O-])CCN(CC(=O)[O-])CC1)C(=O)CNC(=O)C(C)N1CCN(CC(=O)[O-])CCN(CC(=O)[O-])CCN(CC(=O)[O-])CC1)N1CCN(CC(=O)[O-])CCN(CC(=O)[O-])CCN(CC(=O)[O-])CC1.[Gd+3].[Gd+3].[Gd+3].[Gd+3].[Gd+3] (stereo not drawn) [Example 1]
- r1 FBS [1]: 13.2 L/mmol/s
- r1 human plasma [1]: 13.0 L/mmol/s
- r1 water [1]: 11.1 L/mmol/s
- r1 human plasma [2]: 10.8 ± 0.1 L/mmol/s
- r1 water [2]: 9.5 ± 0.2 L/mmol/s
- appearance of the solution after autoclaving [3]: still clear and colorless
- Solubility (Water solubility): >1200 mmol Gd/L

Molecule: CC(C(=O)NCC(=O)N(CCNC(=O)C1CN(C(=O)CNC(=O)C(C)N2CCN(CC(=O)[O-])CCN(CC(=O)[O-])CCN(CC(=O)[O-])CC2)CCN(C(=O)CNC(=O)C(C)N2CCN(CC(=O)[O-])CCN(CC(=O)[O-])CCN(CC(=O)[O-])CC2)C1)CCNC(=O)C1CN(C(=O)CNC(=O)C(C)N2CCN(CC(=O)[O-])CCN(CC(=O)[O-])CCN(CC(=O)[O-])CC2)CCN(C(=O)CNC(=O)C(C)N2CCN(CC(=O)[O-])CCN(CC(=O)[O-])CCN(CC(=O)[O-])CC2)C1)N1CCN(CC(=O)[O-])CCN(CC(=O)[O-])CCN(CC(=O)[O-])CC1.[Gd+3].[Gd+3].[Gd+3].[Gd+3].[Gd+3] (stereo not drawn) [Example 4, Pentagadolinium [4-(1-{[2-(bis{2-[({1,4-bis[({2-[4,7,10-tris(carboxylatomethyl)-1,4,7,10-tetraazacyclododecan-1-yl]propanoyl}amino)acetyl]-1,4-diazepan-6-yl}carbonyl)-amino]ethyl}amino)-2-oxoethyl]amino}-1-oxopropan-2-yl)-7,10-bis(carboxylatomethyl)-1,4,7,10-tetraazacyclododecan-1-yl]acetate]
- r1 FBS [1]: 13.3 L/mmol/s
- r1 human plasma [1]: 13.2 L/mmol/s
- r1 water [1]: 11.5 L/mmol/s
- r1 human plasma [2]: 11.8 ± 0.3 L/mmol/s
- r1 water [2]: 10.1 ± 0.2 L/mmol/s
- Solubility (Water solubility): >1200 mmol Gd/L

Molecule: Hexagadolinium 2,2′,2″,2′″,2″″,2′″″,2″″″,2′″″″,2″″″″,2′″″″″,2″″″″″,2′″″″″″,2″″″″″″, 2′″″″″″″,2″″″″″″″, 2′″″″″″″″,2″″″″″″″″,2′″″″″″″″″-(1,4,7-triazonane-1,4,7-triyltris{carbonyl- 1,4-diazepane-6,1,4-triylbis[(2-oxoethane-2,1-diyl)imino(1-oxopropane-1,2-diyl)-1,4,7,10-tetraazacyclododecane-10,1,4,7-tetrayl]})octadecaacetate [Example 6]
- r1 FBS [1]: 14.2 L/mmol/s
- r1 human plasma [1]: 14.6 L/mmol/s
- r1 water [1]: 13.4 L/mmol/s
- r1 human plasma [2]: 12.8 ± 0.3 L/mmol/s
- r1 water [2]: 11.3 ± 0.4 L/mmol/s
- appearance of the solution after autoclaving [3]: still clear and colorless
- Solubility (Water solubility): >1100 mmol Gd/L

Molecule: CC(C(=O)NCC(=O)NCC(CNC(=O)CNC(=O)C(C)N1CCN(CC(=O)[O-])CCN(CC(=O)[O-])CCN(CC(=O)[O-])CC1)C(=O)NCCN(CCNC(=O)C(CNC(=O)CNC(=O)C(C)N1CCN(CC(=O)[O-])CCN(CC(=O)[O-])CCN(CC(=O)[O-])CC1)CNC(=O)CNC(=O)C(C)N1CCN(CC(=O)[O-])CCN(CC(=O)[O-])CCN(CC(=O)[O-])CC1)C(=O)C(CNC(=O)CNC(=O)C(C)N1CCN(CC(=O)[O-])CCN(CC(=O)[O-])CCN(CC(=O)[O-])CC1)CNC(=O)CNC(=O)C(C)N1CCN(CC(=O)[O-])CCN(CC(=O)[O-])CCN(CC(=O)[O-])CC1)N1CCN(CC(=O)[O-])CCN(CC(=O)[O-])CCN(CC(=O)[O-])CC1.[Gd+3].[Gd+3].[Gd+3].[Gd+3].[Gd+3].[Gd+3] (stereo not drawn) [Example 2]
- r1 FBS [1]: 13.4 L/mmol/s
- r1 human plasma [1]: 13.9 L/mmol/s
- r1 water [1]: 12.1 L/mmol/s
- r1 human plasma [2]: 11.4 ± 0.1 L/mmol/s
- r1 water [2]: 9.2 ± 0.3 L/mmol/s
- appearance of the solution after autoclaving [3]: still clear and colorless
- Solubility (Water solubility): >1200 mmol Gd/L

Molecule: Hexagadolinium 2,2′,2″,2′″,2″″,2′″″,2″″″,2′″″″,2″″″″,2′″″″″,2″″″″″,2′″″″″″,2″″″″″″, 2′″″″″″″,2″″″″″″″, 2′″″″″″″″,2″″″″″″″″,2′″″″″″″″″-{ethane-1,2-diylcarbamoyl-1,4-diazepane-6,1,4-triyltris[(2-oxoethane-2,1-diyl)imino(1-oxopropane-1,2-diyl)-1,4,7,10-tetraazacyclododecane-10,1,4,7-tetrayl]}octadecaacetate [Example 5]
- r1 FBS [1]: 14.6 L/mmol/s
- r1 human plasma [1]: 14.3 L/mmol/s
- r1 water [1]: 13.0 L/mmol/s
- r1 human plasma [2]: 12.4 ± 0.2 L/mmol/s
- r1 water [2]: 10.8 ± 0.3 L/mmol/s
- Solubility (Water solubility): >1100 mmol Gd/L
